pEC50: −log10 of the molar value.
Each molecule was assayed on HT-29 cells (assay: Cell necrosis inhibitory activity under necroptosis-inducing conditions (TNF-α, Z-VAD-FMK, LCL161) in HT-29 cells, Cell Titer-Glo). Conditions: Homo sapiens, 100 ng/mL TNF-α + 25 μM Z-VAD-FMK + Smac mimetic LCL161, 24 hours, cell viability.
Assay type: cell-based
Procedure: To evaluate the cell necrosis inhibitory activity of the compound according to the present invention, an experiment was conducted as follows.
To evaluate the efficacy of inhibiting cell necrosis under TNF-α-mediated cell death-inducing conditions, a HT-29 cell line (Korean Cell Line Bank Accession No. #30038) was cultured in RPMI-1640 (HyClone #SH3027.01) medium containing 10% fetal bovine serum (FBS) and 1% penicillin/streptomycin to analyze cell viability. More specifically, for testing, the cell line was seeded in a 96-well flat bottom plate (Corning #3903) at a concentration of 10,000 cells/well and incubated at 37° C. under a 5% CO2 condition for 24 hours. Each well was treated with 100 ng/mL TNF-α, 25 μM pan-caspase inhibitor (Z-VAD-FMK, Selleckchem #S8102), and 10 µM Smac mimetic LCL161 (Selleckchem #S7009) and allowed to react for 10 minutes. The compounds of Examples were treated at 11 concentrations (the highest concentration being 0.1 μM or 1 μM) with a 3-fold concentration gradient, and as a control, dimethyl sulfoxide (DMSO) was treated at a concentration of 0.05% (v/v), which is the same as those when the compounds were treated. The treated cells were incubated for 24 hours. To confirm the degree of cell viability, 100 μL of Cell Titer-Glo (Promega #G7573) was added to the medium of the cultured cells and cultured for additional 10 minutes, and then luminescence was measured using a microplate reader. Based on the […] of control cells that were not treated with the compound, the degree of cell necrosis inhibitory activity was calculated according to the treatment concentration of each compound. Here, the concentration at which the cell necrosis inhibitory activity was 50% was determined as an EC50 (nM) value and calculated using Prism (ver. 8.4.3 #GraphPad) software.
Molecule Cc1cc(F)c(-c2ccc3nc(N)nn3c2)cc1NC(=O)N1OCC[C@H]1c1ccccc1 [Example 34, (S)-N-(5-(2-amino-[1,2,4]triazolo[1,5-a]pyridin-6-yl)-4-fluoro-2-methylphenyl)-3-phenylisoxazolidine-2-carboxamide] has a pEC50 of 9.30.
In the case of CC(=O)Nc1nc2ccc(-c3cnc(C)c(NC(=O)N4OCC[C@H]4c4ccccc4)c3)cn2n1 [Example 35, (S)-N-(5-(2-acetamido-[1,2,4]triazolo[1,5-a]pyridin-6-yl)-2-methylpyridin-3-yl)-3-phenylisoxazolidine-2-carboxamide], the pEC50 was 8.49.
With Cc1ncc(-c2ccc3nc(NC(=O)C4CC4)nn3c2)cc1NC(=O)N1OCC[C@H]1c1ccccc1 [Example 36, (S)-N-(5-(2-(cyclopropanecarboxamido)-[1,2,4]triazolo[1,5-a]pyridin-6-yl)-2-methylpyridin-3-yl)-3-phenylisoxazolidine-2-carboxamide] the pEC50 was 9.22.
Cc1ncc(-c2ccc3nc(N)nn3c2)cc1NC(=O)N1OCC[C@H]1c1cccc(F)c1 [Example 37, (S)-N-(5-(2-amino-[1,2,4]triazolo[1,5-a]pyridin-6-yl)-2-methylpyridin-3-yl)-3-(3-fluorophenyl)isoxazolidine-2-carboxamide] showed a pEC50 of 8.96.
For Cc1ncc(-c2ccc3nc(N)nn3c2)cc1NC(=O)N1OCC[C@H]1c1cc(F)cc(F)c1 [Example 38, (S)-N-(5-(2-amino-[1,2,4]triazolo[1,5-a]pyridin-6-yl)-2-methylpyridin-3-yl)-3-(3,5-difluorophenyl)isoxazolidine-2-carboxamide], the pEC50 was 8.80.
Work on Cc1ncc(-c2ccc3nc(N)nn3c2)cc1NC(=O)N1OCC[C@H]1c1cccc(Cl)c1 [Example 39, (S)-N-(5-(2-amino-[1,2,4]triazolo[1,5-a]pyridin-6-yl)-2-methylpyridin-3-yl)-3-(3-chlorophenyl)isoxazolidine-2-carboxamide] yielded a pEC50 of 9.05.
In the case of Cc1ncc(-c2ccc3nc(N)nn3c2)cc1NC(=O)N1OCC[C@H]1c1cccc(C(F)(F)F)c1 [Example 41, (S)-N-(5-(2-amino-[1,2,4]triazolo[1,5-a]pyridin-6-yl)-2-methylpyridin-3-yl)-3-(3-(trifluoromethyl)phenyl)isoxazolidine-2-carboxamide], the pEC50 was 9.00.
For Cc1ncc(-c2ccc3nc(N)nn3c2)cc1NC(=O)N1OCC[C@H]1c1ccc(F)c(Cl)c1 [Example 42, (S)-N-(5-(2-amino-[1,2,4]triazolo[1,5-a]pyridin-6-yl)-2-methylpyridin-3-yl)-3-(3-chloro-4-fluorophenyl)isoxazolidine-2-carboxamide], the pEC50 was 9.22.
For Cc1ncc(-c2ccc3nc(N)nn3c2)cc1NC(=O)N1OCC[C@H]1c1cc(F)cc(C(F)(F)F)c1 [Example 43, (S)-N-(5-(2-amino-[1,2,4]triazolo[1,5-a]pyridin-6-yl)-2-methylpyridin-3-yl)-3-(3-fluoro-5-(trifluoromethyl)phenyl)isoxazolidine-2-carboxamide], the pEC50 was 8.14.
In the case of Cc1ncc(-c2ccc3nc(N)nn3c2)cc1NC(=O)N1OCC[C@H]1c1ccc(Cl)c(C(F)(F)F)c1 [Example 44, (S)-N-(5-(2-amino-[1,2,4]triazolo[1,5-a]pyridin-6-yl)-2-methylpyridin-3-yl)-3-(4-chloro-3-(trifluoromethyl)phenyl)isoxazolidine-2-carboxamide], the pEC50 was 8.39.
COc1cccc([C@@H]2CCON2C(=O)Nc2cc(-c3ccc4nc(N)nn4c3)cnc2C)c1 [Example 45, (S)-N-(5-(2-amino-[1,2,4]triazolo[1,5-a]pyridin-6-yl)-2-methylpyridin-3-yl)-3-(3-methoxyphenyl)isoxazolidine-2-carboxamide] showed a pEC50 of 8.34.
Cc1ncc(-c2ccc3nc(N)nn3c2)cc1NC(=O)N1OCC[C@H]1c1cccc(C#N)c1 [Example 46, (S)-N-(5-(2-amino-[1,2,4]triazolo[1,5-a]pyridin-6-yl)-2-methylpyridin-3-yl)-3-(3-cyanophenyl)isoxazolidine-2-carboxamide] gave a pEC50 of 7.71.
